For series [1] the following is noted: cited from earlier work.
The test system of another series is naïve CD4+CD25− cells. In words: Treg induction from naïve T cells by soluble factors (FoxP3 staining, flow cytometry). In kind it is cell-based, mouse. Background: Flow cytometry measures light scatter and fluorescence of single cells or particles in a stream.
The test system of series [2] is dendritic cells / FoxP3+ CD4+ T-cells. The series can be described thus: VIP bioactivity assay: DC culture and CD4+ T cell chemotaxis. In kind it is cell-based, mouse. The note with it: LPS. Here is the method: Three separate DC cultures with 24 individual wells were completed in accordance with Example XIII Both GM-CSF and IL-4 were used to culture the cells in the first two DC cell cultures, but for the third DC culture, the IL-4 was omitted to reduce its possible interference in steering immune cells toward a tolerogenic phenotype. Chemotaxis studies of CD4+ T-cells were performed and the percent of FoxP3+ T-cells which flowed through the transwells for each group was evaluated using flow. The data is presented as a normalized percent of FoxP3+ cells which were recruited by the DCs for the first DC when both IL-4 and GM-CSF were used to culture the DC precursors and when GM-CSF was used alone in the last DC culture. […] See, FIG. 15.
When the DC culture was repeated with the absence of IL-4 and addition of 5×GM-CSF, flow cytometry indicated slightly different trends. […]
In the first two experiments, both GM-CSF and IL-4 were added to DC media (modified RPMI 1640) of bone marrow cell cultures during media changes on Days 0, 3 and 6. […] Five different groups of four wells each were analyzed and received treatment. […]
CD4+ T-cells were isolated from the spleen and lymph nodes of a mouse using Dynal® beads following a standard protocol. […] T Cells that flowed through were analyzed for FoxP3+ expression using flow cytometry.

No end group written: not given here.

Take `CC1=C(/C=C/C(C)=C/C=C/C(C)=C/C(=O)O)C(C)(C)CCC1` [RA, all-trans retinoic acid]: in series [1], the “toxicity upon local administration” value is “induce hypervitaminosis-A”. The “percent of CD4+ that express FoxP3” value in the series with naïve CD4+CD25− cells (RA 0.1 ng/ml, TGF-β 0 ng/ml) was found to be 2.71%; with naïve CD4+CD25− cells (RA 0.1 ng/ml, TGF-β 0.5 ng/ml), 11.98%; with naïve CD4+CD25− cells (RA 0.1 ng/ml, TGF-β 5 ng/ml), 35.18%; in the series on naïve CD4+CD25− cells (RA 0.1 ng/ml, TGF-β 20 ng/ml), 28.33%; in the series on naïve CD4+CD25− cells (RA 1 ng/ml, TGF-β 0 ng/ml) it was 2.64%; in the series on naïve CD4+CD25− cells (RA 1 ng/ml, TGF-β 0.5 ng/ml), 10.5%. The “percent of CD4+ that express FoxP3” value in the series on naïve CD4+CD25− cells (RA 1 ng/ml, TGF-β 5 ng/ml) was 44.71%; in the series with naïve CD4+CD25− cells (RA 1 ng/ml, TGF-β 20 ng/ml) it was 42.25%; in the series with naïve CD4+CD25− cells (RA 10 ng/ml, TGF-β 0 ng/ml) it was 2.27%; in the series on naïve CD4+CD25− cells (RA 10 ng/ml, TGF-β 0.5 ng/ml), 9.36%; in the series with naïve CD4+CD25− cells (RA 10 ng/ml, TGF-β 5 ng/ml), 42.22%; in the series on naïve CD4+CD25− cells (RA 10 ng/ml, TGF-β 20 ng/ml) it was 45.97%. Besides, the “percent of CD4+ that express FoxP3” value in the series with naïve CD4+CD25− cells (RA 100 ng/ml, TGF-β 0 ng/ml) is 2.23%; with naïve CD4+CD25− cells (RA 100 ng/ml, TGF-β 0.5 ng/ml), 10.01%; with naïve CD4+CD25− cells (RA 100 ng/ml, TGF-β 5 ng/ml), 50.71%; with naïve CD4+CD25− cells (RA 100 ng/ml, TGF-β 20 ng/ml), 43.43%.
As for `CO[C@H]1C[C@@H]2CC[C@@H](C)[C@@](O)(O2)C(=O)C(=O)N2CCCC[C@H]2C(=O)O[C@H]([C@H](C)C[C@@H]2CC[C@@H](O)[C@H](OC)C2)CC(=O)[C@H](C)/C=C(\C)[C@@H](O)[C@@H](OC)C(=O)[C@H](C)C[C@H](C)/C=C/C=C/C=C/1C` [Rapa, rapamycin], the “percent of CD4+ that express FoxP3” value in the series on naïve CD4+CD25− cells (Rapa 1 ng/ml, TGF-β 0 ng/ml) was 1.91%; with naïve CD4+CD25− cells (Rapa 1 ng/ml, TGF-β 0.1 ng/ml) it was 3.04%; in the series with naïve CD4+CD25− cells (Rapa 1 ng/ml, TGF-β 1 ng/ml), 8.89%; in the series with naïve CD4+CD25− cells (Rapa 1 ng/ml, TGF-β 5 ng/ml), 34.41%; with naïve CD4+CD25− cells (Rapa 1 ng/ml, TGF-β 20 ng/ml), 76.22%; in the series with naïve CD4+CD25− cells (Rapa 10 ng/ml, TGF-β 0 ng/ml), 3.45%. The “percent of CD4+ that express FoxP3” value in the series on naïve CD4+CD25− cells (Rapa 10 ng/ml, TGF-β 0.1 ng/ml) worked out at 5.31%; in the series on naïve CD4+CD25− cells (Rapa 10 ng/ml, TGF-β 1 ng/ml) it was 14.48%; in the series with naïve CD4+CD25− cells (Rapa 10 ng/ml, TGF-β 5 ng/ml), 51.08%; in the series on naïve CD4+CD25− cells (Rapa 10 ng/ml, TGF-β 20 ng/ml), 78.27%; in the series with naïve CD4+CD25− cells (Rapa 100 ng/ml, TGF-β 0 ng/ml) it was 4.13%; in the series with naïve CD4+CD25− cells (Rapa 100 ng/ml, TGF-β 0.1 ng/ml) it was 7.8%. The “percent of CD4+ that express FoxP3” value in the series with naïve CD4+CD25− cells (Rapa 100 ng/ml, TGF-β 1 ng/ml) is reported as 22.05%; in the series with naïve CD4+CD25− cells (Rapa 100 ng/ml, TGF-β 5 ng/ml), 54.19%; with naïve CD4+CD25− cells (Rapa 100 ng/ml, TGF-β 20 ng/ml) it was 80.36%.
Take “TGF-β: recombinant human TGF-β1 (CHO cell-derived, PeproTech), transforming growth factor β1”: the “percent of CD4+ that express FoxP3” value in the series with naïve CD4+CD25− cells (RA 0 ng/ml, TGF-β 0.5 ng/ml (Table 2)) was determined as 8.08%; with naïve CD4+CD25− cells (RA 0 ng/ml, TGF-β 5 ng/ml (Table 2)), 28.52%; with naïve CD4+CD25− cells (RA 0 ng/ml, TGF-β 20 ng/ml (Table 2)) it was 27.42%; in the series with naïve CD4+CD25− cells (Rapa 0 ng/ml, TGF-β 0.1 ng/ml (Table 1)), 0.61%; in the series on naïve CD4+CD25− cells (Rapa 0 ng/ml, TGF-β 1 ng/ml (Table 1)), 2.82%; in the series on naïve CD4+CD25− cells (Rapa 0 ng/ml, TGF-β 5 ng/ml (Table 1)), 18.16%. For the same compound, the “percent of CD4+ that express FoxP3” value in the series with naïve CD4+CD25− cells (Rapa 0 ng/ml, TGF-β 20 ng/ml (Table 1)) was 53.26%.
Take “VIP: Vasoactive intestinal peptide, a 28-amino acid neuropeptide (HSDAVFTDNYTRLRKQMAVKKYLNSILN; ends and bridges not checked; UniProt P01282 125-152, looked up)”: the “percentage of FoxP3+ cells recruited by treated DCs” value in series [2] (DC precursors cultured with IL-4 and GM-CSF, versus LPS only or blank particle releasates) was “recruited a higher percentage of FoxP3+ cells”; in series [2] (no IL-4, 5×GM-CSF, relative to LPS alone) it was “recruited the same percentage of FoxP3+ cells”.

Source of the values: patent publication US12491159B2, “Controlled release formulations for the induction and proliferation of blood cells” (UNIVERSITY OF PITTSBURGH—OF THE COMMONWEALTH SYSTEM OF …, priority 2012, dated 2025).
